pIC50: −log10 of the molar value. A value given as a limit tells only on which side of the number the result lay.

Chain of FLAG-tagged PDE2A1 (amino acids 2-941) (O00408 2-941): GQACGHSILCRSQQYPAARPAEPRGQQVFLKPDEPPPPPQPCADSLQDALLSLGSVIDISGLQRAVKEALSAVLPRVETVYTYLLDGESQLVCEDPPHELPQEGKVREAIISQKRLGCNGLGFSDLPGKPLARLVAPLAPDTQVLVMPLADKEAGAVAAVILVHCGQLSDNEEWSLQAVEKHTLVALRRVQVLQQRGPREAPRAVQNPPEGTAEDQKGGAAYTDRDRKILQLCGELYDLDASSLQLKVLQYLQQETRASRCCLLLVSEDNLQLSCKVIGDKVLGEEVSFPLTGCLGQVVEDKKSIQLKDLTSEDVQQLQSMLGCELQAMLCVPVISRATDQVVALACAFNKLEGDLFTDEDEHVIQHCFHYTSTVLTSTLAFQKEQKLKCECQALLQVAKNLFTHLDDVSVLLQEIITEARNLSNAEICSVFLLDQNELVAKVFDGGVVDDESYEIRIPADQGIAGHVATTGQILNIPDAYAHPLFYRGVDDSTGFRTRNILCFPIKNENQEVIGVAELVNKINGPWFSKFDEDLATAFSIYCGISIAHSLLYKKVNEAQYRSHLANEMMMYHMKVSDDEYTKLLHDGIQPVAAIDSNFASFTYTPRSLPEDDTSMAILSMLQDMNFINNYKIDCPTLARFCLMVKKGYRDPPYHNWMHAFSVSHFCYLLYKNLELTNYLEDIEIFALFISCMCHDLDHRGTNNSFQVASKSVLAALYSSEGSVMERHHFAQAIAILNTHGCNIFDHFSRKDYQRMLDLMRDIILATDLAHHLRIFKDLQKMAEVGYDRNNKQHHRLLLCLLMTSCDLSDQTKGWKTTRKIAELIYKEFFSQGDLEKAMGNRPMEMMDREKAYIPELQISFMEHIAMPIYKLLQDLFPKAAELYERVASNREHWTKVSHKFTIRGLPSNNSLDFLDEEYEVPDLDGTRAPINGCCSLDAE

For the first test, the target named is FLAG-tagged PDE2A1 (amino acids 2-941) (Homo sapiens (Human), UniProt O00408). Briefly: IMAP TR-FRET PDE2A enzymatic assay. It counts as biochemical. The settings on record: 200 nM FAM-cAMP substrate, 11-point half-log dose-response. An excerpt:
An IMAP TR-FRET-based phosphodiesterase assay was developed using the PDE2A isoform. IMAP technology is based on high-affinity binding of phosphate by immobilized metal (MIII) coordination complexes on nanoparticles. The IMAP “binding reagent” recognizes phosphate groups on AMP or GMP generated from cAMP or cGMP in a PDE reaction. Cyclic nucleotides that carry a phosphodiester bond and not a free phosphate are not recognized by the binding reagent. The time resolved fluorescence resonance energy transfer (TR-FRET) is afforded by a Terbium (Tb)-Donor pre-bound to the nanoparticles. FRET occurs when the fluorescent-labeled AMP or GMP product of a PDE reaction binds and comes into close proximity to the Tb-Donor complex. Due to the long lifetime of Tb fluorescence, detection can be run in time-resolved mode to reduce or eliminate interference from auto-fluorescent compounds.
The IMAP TR-FRET PDE2A assay was performed in 1536-well white plates. A total of 250 pg per well of FLAG-tagged PDE2A1 (amino acids 2-941) was dispensed in 2.5 μL IMAP assay buffer consisting of 10 mM Tris pH 7.2, 10 mM MgCl2, 1 mM DTT, and 0.1% fatty acid free BSA. 30 nL of compound was then added from 1 mM stocks in DMSO using a Kalypsys Pintool. Plates were incubated for 5 min at room temperature before dispensing 1.5 μL of 533 nM FAM-cAMP substrate for a final concentration of 200 nM. Following a brief centrifugation, plates were incubated for 30 min at room temperature. The assay was terminated by adding 5 μL IMAP binding reagent Tb complex to each well which was prepared according to manufacturer's recommendations (Molecular Devices). Plates were incubated an additional 90 minutes at room temperature and read on a Viewlux plate reader. All compounds were solvated at a concentration of 10 mM in DMSO and tested in 11-point half-log dose-response. Curve fitting and IC50 values were determined using a standard four parameter fit.
A general note: In TR-FRET formats the signal depends on donor and acceptor labels being close together.
As for `Cc1cc(C2CCOCC2)n2nc(NCc3cc(Cl)ccc3F)nc2n1` [Example 13, N-(5-Chloro-2-fluorobenzyl)-5-methyl-7-(tetrahydro-2H-pyran-4-yl)-[1,2,4]triazolo[1,5-a]pyrimidin-2-amine], the “PDE2 (PIC50)” value is on record as more than 7.
Consider `COc1ccc(CNc2nc3nc(C)cc(C4CCOCC4)n3n2)c(F)c1` [Example 15, N-[(2-Fluoro-4-methoxyphenyl)methyl]-5-methyl-7-(oxan-4-yl)-[1,2,4]triazolo[1,5-a]pyrimidin-2-amine], for which the “PDE2 (PIC50)” value is recorded as more than 7.

The test is the same for the next values; noted with them: 200 nM FAM-cAMP substrate, 11-point half-log dose-response, read-out: PDE2 (PIC50).
Turning to `COc1ccc(CNc2nc3nc(C)cc(C4CCOCC4)n3n2)cc1` [Example 1, N-(4-Methoxybenzyl)-5-methyl-7-(tetrahydro-2H-pyran-4-yl)-[1,2,4]triazolo[1,5-a]pyrimidin-2-amine], the pIC50 was 6.00 to 7.00.
For the molecule `Cc1cc(C2CC2)n2nc(NCc3ccc4c(c3)CCO4)nc2n1` [Example 2, 7-Cyclopropyl-N-((2,3-dihydrobenzofuran-5-yl)methyl)-5-methyl-[1,2,4]triazolo[1,5-a]pyrimidin-2-amine], the pIC50 was 5.00 to 6.00.
The same measure, in the same setting: as for `Cc1cc(C2CC2)n2nc(NCc3ccc4c(c3)OCC4)nc2n1` [Example 3, 7-Cyclopropyl-N-((2,3-dihydrobenzofuran-6-yl)methyl)-5-methyl-[1,2,4]triazolo[1,5-a]pyrimidin-2-amine], the figure is 5.00 to 6.00.
`COc1ccc(CNc2nc3nc(C)cc(C4CC4)n3n2)cc1` [Example 4, 7-Cyclopropyl-N-(4-methoxybenzyl)-5-methyl-[1,2,4]triazolo[1,5-a]pyrimidin-2-amine]: the pIC50 was 5.00 to 6.00.
With `Cc1cc(C2CCCC2)n2nc(NCc3ccc4c(c3)CCC4)nc2n1` [Example 5, 7-Cyclopentyl-N-((2,3-dihydro-1H-inden-5-yl)methyl)-5-methyl-[1,2,4]triazolo[1,5-a]pyrimidin-2-amine], the pIC50 was 6.00 to 7.00.
With `Cc1cc(C(C)C)n2nc(NCc3ccc4c(c3)CCC4)nc2n1` [Example 6, N-((2,3-Dihydro-1H-inden-5-yl)methyl)-7-isopropyl-5-methyl-[1,2,4]triazolo[1,5-a]pyrimidin-2-amine], the pIC50 was 6.00 to 7.00.
Regarding `Cc1cc(C(C)C)n2nc(NCc3cccc(Cl)c3)nc2n1` [Example 7, N-(3-Chlorobenzyl)-7-isopropyl-5-methyl-[1,2,4]triazolo[1,5-a]pyrimidin-2-amine], the pIC50 is 5.00 to 6.00.
Same read-out and setting: as for `Cc1cc(C(C)C)n2nc(NCc3ccccc3)nc2n1` [Example 8, N-Benzyl-7-isopropyl-5-methyl-[1,2,4]triazolo[1,5-a]pyrimidin-2-amine], the figure is 5.00 to 6.00; as for `Cc1cc(C(C)(C)C)n2nc(NCc3cccc(Cl)c3)nc2n1` [Example 9, 7-(tert-Butyl)-N-(3-chlorobenzyl)-5-methyl-[1,2,4]triazolo[1,5-a]pyrimidin-2-amine], 6.00 to 7.00.
For the molecule `COc1ccc(CNc2nc3nc(C)cc(C(C)C)n3n2)cc1` [Example 10, 7-Isopropyl-N-(4-methoxybenzyl)-5-methyl-[1,2,4]triazolo[1,5-a]pyrimidin-2-amine], the pIC50 is 5.00 to 6.00.
For `CCC(C)c1cc(C)nc2nc(NCc3ccc(OC)cc3)nn12` (stereo not shown) [Example 11, 7-(sec-butyl)-N-(4-Methoxybenzyl)-5-methyl-[1,2,4]triazolo[1,5-a]pyrimidin-2-amine], the pIC50 was 6.00 to 7.00.
Still for that read-out and setting: as for `COc1ccc(CNc2nc3nc(C)cc(C4CCCO4)n3n2)cc1` (stereo not shown) [Example 12, N-(4-Methoxybenzyl)-5-methyl-7-(tetrahydrofuran-2-yl)-[1,2,4]triazolo[1,5-a]pyrimidin-2-amine], the figure is 5.00 to 6.00; as for `Cc1cc(C2CCOCC2)n2nc(NCc3cc(F)cc(F)c3)nc2n1` [Example 14, N-[(3,5-Difluorophenyl)methyl]-5-methyl-7-(oxan-4-yl)-[1,2,4]triazolo[1,5-a]pyrimidin-2-amine], 6.00 to 7.00.
Take `Cc1cc(C2CCOCC2)n2nc(NCc3ccc4c(c3)OCCO4)nc2n1` [Example 16, N-(2,3-Dihydro-1,4-benzodioxin-6-ylmethyl)-5-methyl-7-(oxan-4-yl)-[1,2,4]triazolo[1,5-a]pyrimidin-2-amine]: the pIC50 is 6.00 to 7.00.

For the origin of these results see patent US10239882B2, “Substituted 5-methyl-[1,2,4]triazolo[1,5-a]pyrimidin-2-amine compounds as PDE2 inhibitors” (DART NEUROSCIENCE (CAYMAN) LTD., priority 2014, dated 2019).
